A short description of the series: Solubility in water. To be noted: compared with TOTAPOL.

In the case of bis-TEMPO-bis-Ketal [bTbK], the solubility in water result was “less good solubility in water”.

Values taken from US9035054B2, “Dinitroxide-type biradical compounds optimized for dynamic nuclear polarization (DNP)” (Universite D'Aix-Marseille, priority 2009, dated 2015).
